Molecules are shown by their SMILES. Where two headings read alike, the source gives them in different places.

Experiment in all cases: Glasshouse assay for herbicidal activity, pre-/post-emergence (percentage phytotoxicity)
Holding throughout (assay type): in vivo

Assay [1] has as its system Alopecurus myosuroides (ALOMY). The note with it: Rate 250 g/ha, 100%=total damage, 0%=no damage; for pest or weed control at 250 g/ha: Alopecurus myosuroides. As for the experimental part:
(§1) Seeds of a variety of monocotyledonous and dicotyledonous test plants are sown in standard soil in pots. The plants are cultivated for one day (for pre-emergence) or for about 12 days (for post-emergence) under controlled conditions in a glasshouse (warm climate species at 24/18° C., cool climate species at 20/16° C., both at day/night; 16 hours light; 65% humidity). The test plants are then grown on, in a glasshouse (greenhouse) under controlled conditions (warm climate species at 24/18° C., cool climate species at 20/16° C., both at day/night; 16 hours light; 65% humidity) and are watered twice daily. 15 days after application of the test herbicide (15DAA) (for post-emergence), and 20 days after application of the test herbicide (20DAA) (for pre-emergence), the test plants are evaluated visually, and an assessed percentage phytotoxicity score is given for each herbicidal application on each plant species (with 100%=total damage to plant; 0%=no damage to plant). The plant species tested are as follows: Alopecurus myosuroides (ALOMY), Avena fatua (AVEFA), Lolium perenne (LOLPE), Echinochloa crus-galli (ECHCG).

A further assay concerns Avena fatua (AVEFA). The note with it: Rate 250 g/ha, 100%=total damage, 0%=no damage; for pest or weed control at 250 g/ha: Avena fatua. As for the experimental part:
as §1

Assay [2] deals with Echinochloa crus-galli (ECHCG). The note with it: Rate 250 g/ha, 100%=total damage, 0%=no damage; for pest or weed control at 250 g/ha: Echinochloa crus-galli. The protocol: as §1
For the next assay, the system named is Lolium perenne (LOLPE). The note with it: Rate 250 g/ha, 100%=total damage, 0%=no damage; for pest or weed control at 250 g/ha: Lolium perenne. As for the experimental part: as §1
Where [3] appears, read: 360 h, post-emergence, visual assessment 15 DAA, read-out: Post-emergence herbicidal activity (percentage phytotoxicity), ALOMY POST.
The mark [4] stands for this setting: 480 h, pre-emergence, visual assessment 20 DAA, read-out: Pre-emergence herbicidal activity (percentage phytotoxicity), ALOMY PRE.
Setting [5] is: post-emergence, 360 h, post-emergence, visual assessment 15 DAA, read-out: Post-emergence herbicidal activity (percentage phytotoxicity), AVEFA POST.
Setting [6] is: pre-emergence, 480 h, pre-emergence, visual assessment 20 DAA, read-out: Pre-emergence herbicidal activity (percentage phytotoxicity), AVEFA PRE.
Setting [7] is: post-emergence, 360 h, post-emergence, visual assessment 15 DAA, read-out: Post-emergence herbicidal activity (percentage phytotoxicity), ECHCG POST.
Setting [8] is: pre-emergence, 480 h, pre-emergence, visual assessment 20 DAA, read-out: Pre-emergence herbicidal activity (percentage phytotoxicity), ECHCG PRE.
The mark [9] stands for this setting: post-emergence, 360 h, post-emergence, visual assessment 15 DAA, read-out: Post-emergence herbicidal activity (percentage phytotoxicity), LOLPE POST.
[10] abbreviates: pre-emergence, 480 h, pre-emergence, visual assessment 20 DAA, read-out: Pre-emergence herbicidal activity (percentage phytotoxicity), LOLPE PRE.
[11] abbreviates: post-emergence, visual assessment 15 DAA.
Where [12] appears, read: pre-emergence, visual assessment 20 DAA.

Turning to `Cc1cc(-c2ncc(F)cn2)cc(C)c1C1C(=O)CC(CCNC(=O)C2=NOC(C)(C)C2)C1=O` (centres unmarked) [Compound A110], the pest or weed control at 250 g/ha turned out to be 100% in assay [1] (setting [3]); 100% in assay [1] (setting [4]); 100% in the assay with Avena fatua (AVEFA) (setting [5]); 90% with Avena fatua (AVEFA) (setting [6]); 100% in assay [2] (setting [7]); 90% in assay [2] (setting [8]). The pest or weed control at 250 g/ha in the assay with Lolium perenne (LOLPE) (setting [9]) and with Lolium perenne (LOLPE) (setting [10]) was 90% each time.

Consider `Cc1cc(C)c(C2C(=O)CC(CCNc3ccc(C#N)cn3)C2=O)c(C)c1` (centres unmarked) [Compound A107], for which the pest or weed control at 250 g/ha came out at 100% in assay [1] (setting [3]); 90% in assay [1] (setting [4]); 100% in the assay with Avena fatua (AVEFA) (setting [5]); 90% in the assay on Avena fatua (AVEFA) (setting [6]); 100% in assay [2] (setting [7]); 100% in assay [2] (setting [8]). The pest or weed control at 250 g/ha in the assay on Lolium perenne (LOLPE) (setting [9]) and in the assay on Lolium perenne (LOLPE) (setting [10]) was 100% in each case.

In the case of `Cc1cc(C)c(C2C(=O)CC(CCNc3ccc(C#N)cc3C(F)(F)F)C2=O)c(C)c1` (centres unmarked) [Compound A106], the pest or weed control at 250 g/ha came to 90% in assay [1] (setting [3]); 70% in assay [1] (setting [4]); 90% in the assay with Avena fatua (AVEFA) (setting [5]); 40% in the assay with Avena fatua (AVEFA) (setting [6]); 90% in assay [2] (setting [7]); 90% in assay [2] (setting [8]). Further, the pest or weed control at 250 g/ha in the assay with Lolium perenne (LOLPE) (setting [9]) is 90%; in the assay on Lolium perenne (LOLPE) (setting [10]), 60%.

Consider `Cc1cc(C)c(C2C(=O)CC(CCNC(=O)Nc3ccc(F)cn3)C2=O)c(C)c1.Cl` (centres unmarked) [Compound A93], for which, in assay [1] (setting [11]), the “Post-emergence herbicidal activity (percentage phytotoxicity), ALOMY POST” value is given as 90%. In assay [1] (setting [12]), the “Pre-emergence herbicidal activity (percentage phytotoxicity), ALOMY PRE” value was 90%. The “Post-emergence herbicidal activity (percentage phytotoxicity), AVEFA POST” value with Avena fatua (AVEFA) (setting [11]) was found to be 90%. For the same molecule, the “Pre-emergence herbicidal activity (percentage phytotoxicity), AVEFA PRE” value with Avena fatua (AVEFA) (setting [12]) is on record as 70%. In addition, the “Post-emergence herbicidal activity (percentage phytotoxicity), ECHCG POST” value in assay [2] (setting [11]) is 100%. Besides, in assay [2] (setting [12]), the “Pre-emergence herbicidal activity (percentage phytotoxicity), ECHCG PRE” value came to 90%. Further, the “Post-emergence herbicidal activity (percentage phytotoxicity), LOLPE POST” value with Lolium perenne (LOLPE) (setting [11]) was determined as 70%. Moreover, in the assay on Lolium perenne (LOLPE) (setting [12]), the “Pre-emergence herbicidal activity (percentage phytotoxicity), LOLPE PRE” value stood at 90%.

In the case of `Cc1cc(-c2ncc(Cl)cc2F)cc(C)c1C1C(=O)CC(CCNC(=O)C2=NOC(C)(C)C2)C1=O` (centres unmarked) [Compound A117], the pest or weed control at 250 g/ha in assay [1] (setting [3]) came to 100%; in assay [1] (setting [4]), 90%; in the assay with Avena fatua (AVEFA) (setting [5]) it was 100%; with Avena fatua (AVEFA) (setting [6]), 80%; in assay [2] (setting [7]), 100%; in assay [2] (setting [8]), 80%. In addition, the figures for the pest or weed control at 250 g/ha in the assay with Lolium perenne (LOLPE) (setting [9]) and in the assay on Lolium perenne (LOLPE) (setting [10]) were 100% and 80%, respectively.

For `CC#Cc1cc(C)c(C2C(=O)CC(CCNC(=O)C3=NOC(C)(C)C3)C2=O)c(C)c1` (centres unmarked) [Compound A108], the pest or weed control at 250 g/ha in assay [1] (setting [3]) worked out at 100%; in assay [1] (setting [4]), 100%; with Avena fatua (AVEFA) (setting [5]), 100%; in the assay on Avena fatua (AVEFA) (setting [6]) it was 90%; in assay [2] (setting [7]) it was 100%; in assay [2] (setting [8]), 100%. Also, the pest or weed control at 250 g/ha with Lolium perenne (LOLPE) (setting [9]) and with Lolium perenne (LOLPE) (setting [10]) was 100% throughout.

For the molecule `Cc1cc(OCC(F)(F)F)cc(C)c1C1C(=O)CC(CCNC(=O)C2=NOC(C)(C)C2)C1=O` (centres unmarked) [Compound A115], the pest or weed control at 250 g/ha came to 100% in assay [1] (setting [3]); 100% in assay [1] (setting [4]); 100% in the assay with Avena fatua (AVEFA) (setting [5]); 80% in the assay with Avena fatua (AVEFA) (setting [6]); 100% in assay [2] (setting [7]); 70% in assay [2] (setting [8]). In addition, the pest or weed control at 250 g/ha in the assay with Lolium perenne (LOLPE) (setting [9]) and in the assay with Lolium perenne (LOLPE) (setting [10]) was 90% in each case.

For the origin of these results see patent publication US10301295B2, “Herbicidal compounds” (Syngenta Participations AG, priority 2014, dated 2019).
